Results as given in patent US20190030114A1, “ISOFORM-SPECIFIC CALPAIN INHIBITORS, METHODS OF IDENTIFICATION, AND USES THEREOF” (WESTERN UNIVERSITY OF HEALTH SCIENCES, priority 2014, published 2019).

Legend:
[1] = system: cultured cortical neurons; assay: Bic- and 4-AP-induced neuroprotection against starvation, Hoechst staining; format: cell-based; settings: mCalp-I 200 nM
From the text: Neuronal death was observed and quantified by Hoechst staining. 300-500 neurons were counted for each group in three to 6 independent experiments. *p<0.05; ns, no significant difference; one-way ANOVA followed by Bonferroni test. n=3-6. Error Bar indicates SEM
Neuronal death was observed and quantified by Hoechst staining. 300-500 neurons were counted for each group in three to 6 independent experiments. *p<0.05; ns, no significant difference; one-way ANOVA followed by Bonferroni test. n=3-6. Error Bar indicates SEM (FIG. 6).

[2] = system: cortical neuronal cultures (14 DIV); assay: neuronal death mediated by extrasynaptic NMDA receptor activation; format: cell-based; settings: dose-dependent from 200 nM to 5 μM
Experimental: Results are expressed as percent of neurons positively stained with the Hoechst reagent and are means±S.E.M. of 3-4 experiments (*p<0.01, Student's t-test).
A selective calpain-2 inhibitor blocks neuronal death mediated by extrasynaptic NMDA receptor activation. Cortical neuronal cultures (14 DIV) were treated to induce selective activation of extrasynaptic NMDA receptors, which results in neuronal cell death.

[3] = system: retina (GCL, IPL, RGC); assay: acute IOP elevation (acute angle closure glaucoma model), systemic (i.p.) C2l; format: in vivo, mice
Experimental: FIG. 11A: Calpain-2 inhibition reduces, while calpain-1 knockout exacerbates, cell death in the ganglion cell layer induced by acute IOP elevation. H&E staining of retinal sections from the right eye of vehicle- or C2l-injected wild-type and calpain-1 KO mice and the left eye where sham surgery was performed. Vehicle, 10% DMSO in PBS, was injected i.p. 30 min before and 2 h after acute IOP elevation. Pre- and post-injection C2l (0.3 mg/kg) was done i.p. 30 min before and 2 h after acute IOP elevation. For the One post injection group, C2l was injected 2 h after IOP elevation. For the Two post inj group, C2l was injected 2 and 4 h after IOP elevation. H&E staining was performed 3 days after surgery. Scale bar=30 μm.
Six sections cut through the optic disc of each eye were analyzed. Cell numbers in GCL at a distance between […] the optic disc were counted. Cell densities in 6 sections from each eye were averaged. Data represent means±S.E.M. n=7 for vehicle, n=3 for pre and post inj, n=10 for one post inj, n=6 for two post inj, n=4 for KO. ns, no significant difference. ***p<0.001, Two-tailed t-test.
FIG. 11C: Comparison of GCL cell survival rates from the right eye of vehicle- or C2l-injected wild-type and calpain-1 KO mice and the left eye where sham surgery was performed, as described in FIG. 11A. Survival rate for each mouse was calculated as the ratio of cell density in GCL of IOP-elevated eye to cell density in GCL of sham eye. *p<0.05, **p<0.01 versus vehicle, One-way ANOVA followed by Bonferroni test.
FIG. 11D: Brn-3a immunostaining in the retina of vehicle- or C2l-injected WT mice. Acute IOP elevation was performed on the right eye, while sham surgery was performed on the left eye. Vehicle, 10% DMSO, or C2l, C2l (0.3 mg/kg) was injected i.p. 2 h after acute IOP elevation. Brn3a staining was performed 3 days after surgery. Scale bar=60 μm.
FIG. 11E: Quantification of brn3a staining, as described in FIG. 11D. Brn3a-positive cells in GCL were counted. Data represents mean±S.E.M. n=4 for vehicle, n=5 for C2l. Ns, no significant difference, **p<0.01 sham versus IOP elevation, two-tailed t-test.
FIG. 11F: Comparison of survival rates. n=4 for vehicle, n=5 for C2l. **p<0.01 vehicle versus C2l, two-tailed t-test.
FIG. 11G: Representative immunoblots of PHLPP1 and STEP33 in retina tissue of WT, calpain-1 KO and C2l-injected mice collected 3 h after sham surgery or acute IOP elevation. C2l (0.3 mg/kg) was injected systemically 2 h after sham surgery or IOP elevation.
FIG. 11H: Quantitative analysis of the levels of PHLPP1 and STEP33 and ratios of pAkt/Akt for each group. Results represent means±S.E.M. of 4 experiments. *p<0.05, **p<0.01, ***p<0.001, ns no significant difference, One-way ANOVA followed by Bonferroni test.
Sequential activation of calpain-1 and calpain-2 in retina after acute IOP elevation. The following IOP elevation studies were performed using a model of acute angle closure glaucoma consisting of increasing intraocular pressure (IOP) to 110 mm Hg for 60 min by inserting a needle connected to an elevated reservoir of saline into the anterior chamber. This model reproduced several features of acute angle closure, including, ischemia of retina and iris as noted by absence of red reflex and pupillary response to light. Anterior chamber synechae, resulting in a narrow angle and adhesions between the iris and the cornea, increased cells and flare in the anterior chamber and increased corneal thickness due to corneal edema. Some of these changes persisted over 3 days of observation. Eyes were collected at 0, 2, 4 and 6 h after IOP elevation and retinal frozen sections were prepared and processed for immunohistochemistry with SBDP antibody. In WT mice, SBDP was clearly present in IPL at 2, 4 and 6 h after IOP elevation. However in calpain-1 KO mice, SBDP was only evident in the IPL at 4 and 6 h but not at 2 h (FIG. 10A and C). […]

[4] = 0.3 mg/kg i.p. 30 min before and 2 h after IOP elevation (pre and post inj), 3 days, n=3
[5] = i.p. 2 and 4 h after IOP elevation (two post inj), n=6
[6] = i.p. 2 h after IOP elevation (one post inj), n=10

For CCC(NC(=O)C(CC(C)C)NC(=O)OCc1ccccc1)C(=O)C(=O)NCc1cc(OC)cc(OC)c1 (racemic) [Formula 1, Z-Leu-Abu-CONH—CH2-C6H3 (3, 5-(OMe)2)], the “blocked Bic- and 4-AP-induced neuroprotection against starvation” value [1] was “not”, the “neuronal cell death associated with extrasynaptic NMDA receptor activation” value [2] was “reduced the neuronal cell death” and the “neuronal cell death associated with extrasynaptic NMDA receptor activation” value ([2]; listed as Formula I) was “reduced neuronal cell death”. For the same compound, the “cell counts in GCL, IOP-elevated eye” value [3, 4] was 105.8±4.5 cells/mm, the “cell counts in GCL, sham eye” value [3, 4] was 125.1±10.5 cells/mm and the “SBDP signal in IPL at 4 and 6 h” value ([3]; 0.3 mg/kg i.p. 2 h after IOP elevation, WT mice) was “significantly reduced”. The “cell survival rate (cell count in IOP-elevated eye to sham eye) versus vehicle” value ([3]; all three C2l injected groups) was “significantly increased”, the “cell counts in GCL, IOP-elevated eye” value [3, 5] was 96.1±6.3 cells/mm and the “cell counts in GCL, sham eye” value [3, 5] was 118.6±3.7 cells/mm. The “cell counts in GCL, IOP-elevated eye” value [3, 6] was 86.4±7.0 cells/mm, the “cell counts in GCL, sham eye” value [3, 6] was 110.6±3.6 cells/mm and the “PTEN degradation at 4 and 6 h” value ([3]; injected 2 h after IOP elevation, WT mice) was “completely blocked”.
